The record followed here is patent US8063234B2, “Substituted 7-sulfanylmethyl-, 7-sulfinylmethyl- and 7-sulfonylmethylindoles and the use thereof” (Bayer Schering Pharma Aktiengesellschaft, priority 2008, dated 2011).

Bounds are passed on as bounds.

For this data set, the target named is T1, CYP3A4 (Homo sapiens, UniProt P08684).
T1 construct: human liver microsomes (pool from various individuals); from tissue; host or cells: human liver microsomes (pool from various individuals)
T1 sequence (P08684 whole entry): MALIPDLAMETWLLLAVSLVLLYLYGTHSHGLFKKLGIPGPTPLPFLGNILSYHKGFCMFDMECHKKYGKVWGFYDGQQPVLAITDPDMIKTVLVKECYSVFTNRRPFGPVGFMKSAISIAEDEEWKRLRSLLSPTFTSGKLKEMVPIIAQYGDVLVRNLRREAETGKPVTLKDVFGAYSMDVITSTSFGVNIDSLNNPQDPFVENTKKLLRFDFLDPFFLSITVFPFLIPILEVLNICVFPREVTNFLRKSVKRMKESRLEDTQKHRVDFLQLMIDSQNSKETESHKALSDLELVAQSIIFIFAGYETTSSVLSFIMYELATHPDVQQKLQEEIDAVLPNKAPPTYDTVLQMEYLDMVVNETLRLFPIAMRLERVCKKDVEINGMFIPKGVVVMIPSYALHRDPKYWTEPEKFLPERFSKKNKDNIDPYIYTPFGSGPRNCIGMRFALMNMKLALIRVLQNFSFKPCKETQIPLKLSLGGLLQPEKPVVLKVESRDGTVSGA
Briefly: Assay to assess irreversible CYP3A4 inhibition (mechanism-based inhibition) in human liver microsomes. Type of data set: in vitro ADME. As to conditions: 2-20 μM, preincubation 0-50 min, 6β-hydroxytestosterone formation. An excerpt: 8. Assay to Assess Irreversible CYP3A4 Inhibition
Cytochrom P450 enzyme inhibition, especially irreversible enzyme inhibition, also referred to as mechanism-based inhibition (MBI), is an unwanted metabolic property of a substance which may, on concurrent administration of other medicaments, lead to considerable drug interactions. Criteria for the presence of an irreversible inhibition are a time-, concentration- and cofactor- (nicotinamide adenine dinucleotide phosphate, NADPH) dependent inhibition. To this end, the compounds of the invention are incubated in vitro with human liver microsomes, the influence on the CYP3A4 activity and the metabolic degradation of the novel active ingredient is determined, and the prototypical parameters kinact, Ki and the partition ratio r are ascertained therefrom.
The compounds of the invention are incubated with concentrations of 2-20 μM. To this end, stock solutions of the active ingredients with a concentration of 0.2-2 mM are prepared in acetonitrile and then pipetted with a 1:100 dilution into the incubation mixture. The liver microsomes are incubated in 50 mM potassium phosphate buffer (pH 7.4) with and without NADPH-generating system consisting of 1 mM NADP^+, 5 mM glucose 6-phosphate and 1 unit of glucose 6-phosphate dehydrogenase, at 37° C. After defined preincubation times of 0-50 min, aliquots are removed from these mixtures, diluted 1:25 in a new incubation, and incubated in the presence of testosterone and new NADPH-generating system again for 20 min. These incubation mixtures are stopped with acetonitrile (final concentration about 30% v/v), and the protein is removed by centrifugation at about 15 000×g. The samples stopped in this way are either analyzed directly or stored at −20° C. until analyzed.
The analysis takes place by high performance liquid chromatography with mass spectrometry detection (LC-MS). The formation of 6β-hydroxytestosterone as measure of CYP3A4 activity, and the test substance still remaining is quantified. The parameters kinact, Ki and the partition ratio r are determined therefrom so as to assess the novel active ingredients in relation to MBI.
In general terms: Liver microsomes are a subcellular fraction often used to study metabolism.
Turning to `CS(=O)(=O)Cc1cccc2c(C(CCC#N)c3ccc(C(F)(F)F)cc3)c[nH]c12` (single isomer, unassigned) [Example 56-1, 4-{7-[(Methylsulfonyl)methyl]-1H-indol-3-yl}-4-[4-(trifluoromethyl)phenyl]butanonitrile], the Partition ratio r came out at 100. `CS(=O)(=O)Cc1cccc2c(C(CCC#N)c3ccc(Cl)cc3F)c[nH]c12` (single isomer, unassigned) [Example 59-1, 4-(4-Chloro-2-fluorophenyl)-4-{7-[(methylsulfonyl)methyl]-1H-indol-3-yl}butanonitrile]: the Partition ratio r worked out at 220. Under `CS(=O)(=O)Cc1cccc2c(C(c3ccc(F)cc3)c3ccc(Cl)cc3F)c[nH]c12` (single isomer, unassigned) [Example 118-1, 3-[(4-Chloro-2-fluorophenyl)(4-fluorophenyl)methyl]-7-[(methylsulfonyl)methyl]-1H-indole] stands 250; under `CS(=O)(=O)Cc1cccc2c(C(c3ccc(Cl)cc3)C3CC3(F)F)c[nH]c12` (single isomer, unassigned) [Example 261-1, 3-[(4-Chlorophenyl)(2,2-difluorocyclopropyl)methyl]-7-[(methylsulfonyl)methyl]-1H-indole], more than 200. As for `CS(=O)(=O)Cc1cc(F)cc2c(C(c3ccc(F)cc3Cl)C3CC3C#N)c[nH]c12` (single isomer, unassigned) [Example 266-1, 2-[(2-Chloro-4-fluorophenyl){5-fluoro-7-[(methylsulfonyl)methyl]-1H-indol-3-yl}methyl]cyclopropanecarbonitrile], the figure is more than 200; as for `CS(=O)(=O)Cc1cc(F)cc2c(C(c3ccc(C(F)(F)F)cc3F)C3CC3C#N)c[nH]c12` (single isomer, unassigned) [Example 271-1-1, 2-({5-Fluoro-7-[(methylsulfonyl)methyl]-1H-indol-3-yl}[2-fluoro-4-(trifluoro-methyl)phenyl]methyl)cyclopropanecarbonitrile], more than 200.

As for `CS(=O)(=O)Cc1cc(F)cc2c(C(c3ccc(Cl)cc3F)C3CC3C#N)c[nH]c12` (single isomer, unassigned) [Example 273-1-2, 2-[(4-Chloro-2-fluorophenyl){5-fluoro-7-[(methylsulfonyl)methyl]-1H-indol-3-yl}methyl]cyclopropanecarbonitrile], the Partition ratio r is given as more than 200. As for `CS(=O)(=O)Cc1cc(F)cc2c(C(c3ccc(Cl)cc3)C3CC3C#N)c[nH]c12` (single isomer, unassigned) [Example 277-1-1, 2-[(4-Chlorophenyl){5-fluoro-7-[(methylsulfonyl)methyl]-1H-indol-3-yl}methyl]cyclopropane-carbonitrile], the figure is more than 200. `CS(=O)(=O)Cc1cccc2c(C(CCC#N)c3ccc4sccc4c3)c[nH]c12` (centres unmarked) [Example 73, 4-(1-Benzothiophen-5-yl)-4-{7-[(methylsulfonyl)methyl]-1H-indol-3-yl}butanonitrile]: the Partition ratio r was more than 500.

Take `CS(=O)(=O)Cc1cccc2c(C3(C4CC4)CCc4cc(F)ccc43)c[nH]c12` (centres unmarked) [Example 107, 3-(1-Cyclopropyl-5-fluoro-2,3-dihydro-1H-inden-1-yl)-7-[(methylsulfonyl)methyl]-1H-indole]: the Partition ratio r is listed as more than 400. Under `CS(=O)(=O)Cc1cccc2c(C(c3ccc(F)cc3)c3ccc(C(F)(F)F)cc3)c[nH]c12` (centres unmarked) [Example 113, 3-{(4-Fluorophenyl) [4-(trifluoromethyl)phenyl]methyl}-7-[(methylsulfonyl)methyl]-1H-indole] stands more than 500. On to `CCC(CCO)(c1ccc(Cl)cc1)c1c[nH]c2c(CS(C)(=O)=O)cccc12` (centres unmarked) [Example 147, 3-(4-Chlorophenyl)-3-{7-[(methylsulfonyl)methyl]-1H-indol-3-yl}pentan-1-ol], for which the Partition ratio r is 90. Under `CS(=O)(=O)Cc1cccc2c(C(CCC#N)c3ccc4c(c3)OC(F)(F)O4)c[nH]c12` (centres unmarked) [Example 169, 4-(2,2-Difluoro-1,3-benzodioxol-5-yl)-4-{7-[(methylsulfonyl)methyl]-1H-indol-3-yl}butanonitrile] stands more than 500; under `CCC(CCC#N)(c1ccc(Cl)cc1)c1c[nH]c2c(CS(C)(=O)=O)cccc12` (centres unmarked) [Example 172, 4-(4-Chlorophenyl)-4-{7-[(methylsulfonyl)methyl]-1H-indol-3-yl}hexanonitrile], 120.
